Data on twelve compounds can be found in US20100305173A1, “HYDROXYETHYLAMINO SULFONAMIDE DERIVATIVES” (CoNCERT Pharmaceuticals, Inc., priority 2009, published 2010).

A short description of this data set: Metabolic stability of test compounds in human liver microsomes. As to conditions: for half-life: human, liver microsomes, pH 7.4, half-life in human liver microsomes. The format is in vitro ADME. Here is the method:
Determination of Metabolic Stability of Test Compounds in
Human Liver Microsomes. Human liver microsomes (20 mg/mL) were obtained from Xenotech, LLC (Lenexa, Kans.). β-nicotinamide adenine dinucleotide phosphate, reduced form (NADPH), magnesium chloride (MgCl2), and dimethyl sulfoxide (DMSO) were purchased from Sigma-Aldrich.
7.5 mM stock solutions of test compounds were prepared in DMSO. […] The diluted microsomes (375 μL) were added to wells of a 96-well deep-well polypropylene plate in triplicate. […] Reactions were initiated by addition of 125 μL of pre-warmed NADPH solution. The final reaction volume was 0.5 mL and contained 0.5 mg/mL human liver microsomes, 0.25-1.0 μM test compound, and 2 mM NADPH in 0.1 M potassium phosphate buffer, pH 7.4, and 3 mM MgCl2. The reaction mixtures were incubated at 37° C., and 50 μL aliquots were removed at 0, 5, 10, 20, and 30 minutes and added to shallow-well 96-well plates which contained 50 μL of ice-cold ACN with internal standard to stop the reactions. The plates were stored at 4° C. for 20 minutes after which 100 μL of water was added to the wells of the plate before centrifugation to pellet precipitated proteins. Supernatants were transferred to another 96-well plate and analyzed for amounts of parent compound remaining by LC-MS/MS using an Applied Bio-systems API 4000 mass spectrometer. 7-ethoxycoumarin (1 μM) was used as the positive control substrate.
Data analysis: The in vitro half-lives (tii2s) for test compounds were calculated from the slopes of the linear regression of % parent remaining (ln) vs incubation time relationship using the following formula: […]
Data analysis was performed using Microsoft Excel Software.
FIG. 1, FIG. 2, FIG. 3, Table 2, Table 3 and Table 4 show the results of this experiment.
A general note: Liver microsomes are vesicles of endoplasmic reticulum, rich in cytochrome P450 enzymes.

Setting [1] is: Table 4, Expt I, read-out: T1/2 (min) Expt I.
[2] abbreviates: Table 4, Expt J, read-out: T1/2 (min) Expt J.
[3] abbreviates: Table 4, calculated average of Expt E-J, read-out: T1/2 (min) Average ± SD.
The mark [4] stands for this setting: Table 4, Expt H, read-out: T1/2 (min) Expt H.
[5] abbreviates: Table 2, Exp A, read-out: T1/2 (min) Exp A.
The mark [6] stands for this setting: Table 2, Exp B, read-out: T1/2 (min) Exp B.
Where [7] appears, read: Table 2, calculated average of Exp A and B, read-out: T1/2 (min) Average.
The mark [8] stands for this setting: Table 4, Expt G, read-out: T1/2 (min) Expt G.
[9] abbreviates: Table 3, Exp C, read-out: T1/2 (min) Exp C.
Setting [10] is: Table 3, Exp D, read-out: T1/2 (min) Exp D.
The mark [11] stands for this setting: Table 3, calculated average of Exp C and D, read-out: T1/2 (min) Average.

Read-outs that look alike come from different tables or passages of the source.

With `Cc1nc(COc2ccc(C[C@H](NC(=O)O[C@H]3CO[C@H]4OCC[C@H]43)[C@H](O)CN(CC(C)C)S(=O)(=O)c3ccc4c(c3)OCO4)cc2)cs1` [Brecanavir, N-[3-[N-(1,3-Benzodioxol-5-ylsulfonyl)-N-isobutylamino]-2(R)-hydroxy-1-(S)-[4-(2-methylthiazol-4-ylmethoxy)benzyl]propyl]carbamic acid (3R,3aS,6aR)-perhydrofuro[2,3-b]furan-3-yl ester, reference compound], the half-life reads like this: under setting [1], 2 min; under setting [2], 2 min; under setting [3], 2 min.
With `[2H]C([2H])([2H])C([2H])(C([2H])([2H])[2H])C([2H])([2H])N(C[C@@H](O)[C@H](Cc1ccccc1)NC(=O)O[C@]1([2H])[C@@H]2CCO[C@@H]2OC1([2H])[2H])S(=O)(=O)c1ccc2occc2c1` [Compound 106, (3R,3aS,6aR)-hexahydrofuro[2,3-b]furan-3-yl-((2S,3R)-3-hydroxy-4-(N-isobutylbenzofuran-5-sulfonamido)-1-phenylbutan-2-yl)carbamate-d12], the “increase in stability over darunavir and brecanavir” value (human liver microsomes, versus darunavir and brecanavir, in words) is reported as “very significant increase in stability”. The half-life is, setting by setting: (Table 4, Expt E, read-out: T1/2 (min) Expt E) 31.2 min; (Table 4, Expt F, read-out: T1/2 (min) Expt F) 21.2 min; under setting [4], 18.1 min; under setting [1], 21.5 min; under setting [2], 46.7 min; under setting [3], 23 ± 5.7 min.
In the case of `[2H]C([2H])([2H])C([2H])(C([2H])([2H])[2H])C([2H])([2H])N(C[C@@H](O)[C@H](Cc1ccccc1)NC(=O)O[C@]1([2H])[C@@H]2CCO[C@@H]2OC1([2H])[2H])S(=O)(=O)c1ccc(NC(C)=O)cc1` [Compound 227, (3R,3aS,6aR)-hexahydrofuro[2,3-b]furan-3-yl-((2S,3R)-4-(4-acetamido-N-isobutylphenylsulfonamido)-3-hydroxy-1-phenylbutan-2-yl) carbamate-d12], the half-life was 9 min under setting [5]; 4.3 min under setting [6]; 6.6 min under setting [7]; 5.7 min under setting [8]; 5.3 min under setting [4]; 7.2 min under setting [1]. The half-life is 7.1 min under setting [2] and 6.3 ± 1 min under setting [3].
With `[2H]C([2H])([2H])C([2H])(C([2H])([2H])[2H])C([2H])([2H])N(C[C@@H](O)[C@H](Cc1ccccc1)NC(=O)O[C@]1([2H])[C@@H]2CCO[C@@H]2OC1([2H])[2H])S(=O)(=O)c1ccc2ncsc2c1` [Compound 229, (3R,3aS,6aR)-hexahydrofuro[2,3-b]furan-3-yl-((2S,3R)-3-hydroxy-4-(N-isobutylbenzo[d]thiazole-6-sulfonamido)-1-phenylbutan-2-yl)carbamate-d12], the half-life under setting [9] turned out to be 8.7 min; the half-life under setting [10] amounted to 8.6 min; the half-life under setting [11] is 8.6 min; the half-life under setting [8] was 6.4 min; the half-life under setting [4] was determined as 6.7 min; the half-life under setting [1] is 6 min. Besides, the half-life reads like this: under setting [2], 5.8 min; under setting [3], 6.2 ± 0.4 min.
Turning to `[2H]C([2H])([2H])C([2H])(C([2H])([2H])[2H])C([2H])([2H])N(C[C@@H](O)[C@H](Cc1ccccc1)NC(=O)O[C@@]1([2H])C([2H])([2H])O[C@@]2([2H])OC([2H])([2H])C([2H])([2H])[C@]21[2H])S(=O)(=O)c1ccc2ncsc2c1` [Compound 230, (3R,3aS,6aR)-hexahydrofuro[2,3-b]furan-3-yl-((2S,3R)-3-hydroxy-4-(N-isobutylbenzo[d]thiazole-6-sulfonamido)-1-phenylbutan-2-yl)carbamate-d18], the “increase in stability over darunavir” value (human liver microsomes, average of two runs, versus darunavir) amounted to 36%. In addition, the “increase in stability over 302, its non-deuterated counterpart” value (human liver microsomes, versus 302, in words) is on record as “an even greater increase in stability”. In addition, the half-life was 11.7 min under setting [9], 15.1 min under setting [10] and 13.4 min under setting [11].
Take `[2H]C([2H])([2H])C([2H])(C([2H])([2H])[2H])C([2H])([2H])N(C[C@@H](O)[C@H](Cc1ccccc1)NC(=O)O[C@]1([2H])[C@@H]2CCO[C@@H]2OC1([2H])[2H])S(=O)(=O)c1ccc(NC(=O)C2CC2)cc1` [Compound 233, (3R,3aS,6aR)-hexahydrofuro[2,3-b]furan-3-yl-((2S,3R)-4-(4-(cyclopropanecarbox-amido)-N-isobutylphenylsulfonamido)-3-hydroxy-1-phenylbutan-2-yl)carbamate-d12]: the half-life is, setting by setting: under setting [5], 4.7 min; under setting [6], 2.4 min; under setting [7], 3.5 min.
Turning to `[2H]C([2H])([2H])C([2H])(C([2H])([2H])[2H])C([2H])([2H])N(C[C@@H](O)[C@H](Cc1ccccc1)NC(=O)O[C@]1([2H])[C@@H]2CCO[C@@H]2OC1([2H])[2H])S(=O)(=O)c1ccc2occ(CNC(=O)OCC)c2c1` [Compound 235, ((5-(N-((2R,3S)-3-(((((3R,3aS,6aR)-hexahydrofuro[2,3-b]furan-3-yl)oxy)carbonyl)amino)-2-hydroxy-4-phenylbutyl)-isobutylsulfamoyl)benzofuran-3-yl)methyl)carbamic acid ethyl ester-d12], the half-life was 2.4 min under setting [5], 1.5 min under setting [6] and 2 min under setting [7].
`[2H]C([2H])(N(C[C@@H](O)[C@H](Cc1ccccc1)NC(=O)O[C@]1([2H])[C@@H]2CCO[C@@H]2OC1([2H])[2H])S(=O)(=O)c1ccc(NC(C)=O)cc1)C1([2H])C([2H])([2H])C([2H])([2H])C([2H])([2H])C1([2H])[2H]` [Compound 236, (3R,3aS,6aR)-hexahydrofuro[2,3-b]furan-3-yl-((2S,3R)-4-(4-acetamido-N-(cyclopen-tylmethyl)phenylsulfonamido)-3-hydroxy-1-phenylbutan-2-yl)carbamate-d14]: the half-life was 7.1 min under setting [5], 3.6 min under setting [6] and 5.4 min under setting [7].
Turning to `[2H]C([2H])([2H])C([2H])(C([2H])([2H])[2H])C([2H])([2H])N(C[C@@H](O)[C@H](Cc1ccccc1)NC(=O)O[C@]1([2H])[C@H]2[C@H](OC([2H])([2H])C2([2H])[2H])OC1([2H])[2H])S(=O)(=O)c1ccc2ncsc2c1` [Compound 237, (3R,3aS,6aR)-hexahydrofuro[2,3-b]furan-3-yl-((2S,3R)-3-hydroxy-4-(N-isobutylbenzo[d]thiazole-6-sulfonamido)-1-phenylbutan-2-yl)carbamate-d16], the half-life under setting [9] came out at 8.3 min, the half-life under setting [10] amounted to 7.9 min and the half-life under setting [11] was 8.1 min.
Take `CCOC(=O)NCc1coc2ccc(S(=O)(=O)N(CC(C)C)C[C@@H](O)[C@H](Cc3ccccc3)NC(=O)O[C@H]3CO[C@H]4OCC[C@H]43)cc12` [Compound 301, reference compound]: the half-life is 1.9 min under setting [5], 1.5 min under setting [6] and 1.7 min under setting [7].
Turning to `CC(C)CN(C[C@@H](O)[C@H](Cc1ccccc1)NC(=O)O[C@H]1CO[C@H]2OCC[C@H]21)S(=O)(=O)c1ccc2ncsc2c1` [Compound 302, reference compound], the half-life under setting [9] stood at 8.2 min; the half-life under setting [10] worked out at 8.7 min; the half-life under setting [11] was 8.5 min; the half-life under setting [1] was 5.6 min; the half-life under setting [2] amounted to 6.4 min; the half-life under setting [3] is 6 min.
On to `CC(C)CN(C[C@@H](O)[C@H](Cc1ccccc1)NC(=O)O[C@H]1CO[C@H]2OCC[C@H]21)S(=O)(=O)c1ccc2occc2c1` [Compound 303, reference compound], for which the half-life is 21.1 min under setting [1], 19.9 min under setting [2] and 20.5 min under setting [3].
